In ChEMBL document CHEMBL1142343, “Design and structure-activity relationships of potent and selective inhibitors of undecaprenyl pyrophosphate synthase (UPPS): tetramic, tetronic acids and dihydropyridin-2-ones” (Bioorg Med Chem Lett, 2008):
In brackets after ≈: the same amount, converted by molar mass.

Experiments:
Staphylococcus aureus = test: Antibacterial activity against Staphylococcus aureus by microdilution broth method; format: functional
[1] = biological target: T1, Farnesyl pyrophosphate synthase (Homo sapiens, UniProt P14324); test: Inhibition of human FPPS
T1 sequence (P14324 whole entry): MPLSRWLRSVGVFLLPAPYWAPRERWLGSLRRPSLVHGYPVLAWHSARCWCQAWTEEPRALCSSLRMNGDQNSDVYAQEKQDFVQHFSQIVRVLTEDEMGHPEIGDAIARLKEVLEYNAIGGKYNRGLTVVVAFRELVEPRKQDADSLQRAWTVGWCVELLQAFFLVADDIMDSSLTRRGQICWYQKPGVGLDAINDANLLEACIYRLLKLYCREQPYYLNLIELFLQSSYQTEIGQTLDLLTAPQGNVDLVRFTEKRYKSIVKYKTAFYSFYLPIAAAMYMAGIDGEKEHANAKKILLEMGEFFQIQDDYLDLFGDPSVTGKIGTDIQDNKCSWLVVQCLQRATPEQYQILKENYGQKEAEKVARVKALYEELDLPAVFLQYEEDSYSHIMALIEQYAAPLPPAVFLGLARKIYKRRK

Enterococcus faecalis = test: Antibacterial activity against Enterococcus faecalis by microdilution broth method; format: functional
Isoprenyl transferase = biological target: T2, Isoprenyl transferase (Streptococcus pneumoniae serotype 4 (strain ATCC BAA-334 / TIGR4), UniProt Q97SR4); test: Inhibition of Streptococcus pneumoniae UPPS
T2 sequence (Q97SR4 whole entry): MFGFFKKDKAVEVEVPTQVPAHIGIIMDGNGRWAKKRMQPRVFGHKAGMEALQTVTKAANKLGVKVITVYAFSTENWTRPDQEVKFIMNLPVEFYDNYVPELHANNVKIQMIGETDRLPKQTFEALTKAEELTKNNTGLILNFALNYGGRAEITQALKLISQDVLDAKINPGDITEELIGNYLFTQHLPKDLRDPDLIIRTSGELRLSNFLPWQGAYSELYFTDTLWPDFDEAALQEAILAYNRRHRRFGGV

Streptococcus pneumoniae = test: Antibacterial activity against Streptococcus pneumoniae by microdilution broth method; format: functional
[2] = Dissociation constant, pKa of the compound; format: physicochemical

| Structure (SMILES) | MIC (Staphylococcus aureus) | IC50 [1] | MIC (Enterococcus faecalis) | IC50 (Isoprenyl transferase) | MIC (Streptococcus pneumoniae) | pKa [2] |
| --- | --- | --- | --- | --- | --- | --- |
| O=C(Nc1ccc(C2CCCCC2)cc1)C1=C(O)C(Cc2ccccc2)OC1=O (centres undefined) | 64 µg/mL (≈ 163 µM) | > 50000 nM | 32 µg/mL (≈ 81.7 µM) | 500 nM | 1 µg/mL (≈ 2.55 µM) | – |
| O=C(Nc1ccc(S(=O)(=O)c2ccccc2)cc1)C1=C(O)CC(Cc2ccccc2)NC1=O (centres undefined) | 32 µg/mL (≈ 69.2 µM) | – | 16 µg/mL (≈ 34.6 µM) | 8500 nM | 16 µg/mL (≈ 34.6 µM) | 6.5 |
| O=C(Nc1ccc(Cl)cc1)C1=C(O)C(c2ccccc2)OC1=O (centres undefined) | > 64 µg/mL | > 50000 nM | > 64 µg/mL | 24000 nM | 64 µg/mL (≈ 194 µM) | – |
| O=C(Nc1ccc(Oc2ccccc2)cc1)C1=C(O)CC(Cc2ccccc2)NC1=O (centres undefined) | 16 µg/mL (≈ 38.6 µM) | > 50000 nM | 64 µg/mL (≈ 154 µM) | 110 nM | 32 µg/mL (≈ 77.2 µM) | 6.5 |
| O=C(Nc1ccc(Nc2ccccc2)cc1)C1=C(O)CC(Cc2ccccc2)NC1=O (centres undefined) | – | – | – | 1100 nM | – | 6.5 |
| O=C(Nc1ccc(N2CCCCC2)cc1)C1=C(O)C(CCc2ccccc2)NC1=O (centres undefined) | 4 µg/mL (≈ 9.86 µM) | > 50000 nM | 8 µg/mL (≈ 19.7 µM) | 800 nM | 4 µg/mL (≈ 9.86 µM) | 3 |
| O=C1NCC(CC2CCCCC2)C(O)=C1C(=O)Nc1ccc(-n2ccnc2)cc1 (centres undefined) | 16 µg/mL (≈ 40.6 µM) | – | 4 µg/mL (≈ 10.1 µM) | 2100 nM | 16 µg/mL (≈ 40.6 µM) | – |
| COCC1NC(=O)C(C(=O)Nc2ccc(C3CCCCC3)cc2)=C1O (centres undefined) | – | – | – | > 50000 nM | – | 3 |
| O=C(Nc1ccc(-c2ccccc2)cc1)C1=C(O)C(CCc2ccccc2)NC1=O (centres undefined) | 4 µg/mL (≈ 10 µM) | > 100000 nM | 16 µg/mL (≈ 40.2 µM) | 120 nM | 2 µg/mL (≈ 5.02 µM) | 3 |
| O=C(Nc1ccc(C2CCCCC2)cc1)C1=C(O)CN(Cc2ccccc2)C1=O | 0.5 µg/mL (≈ 1.28 µM) | 8000 nM | 1 µg/mL (≈ 2.56 µM) | 300 nM | – | 3 |
| O=C(Nc1ccc(F)cc1)C1=C(O)C(CCc2ccccc2)NC1=O (centres undefined) | 16 µg/mL (≈ 47 µM) | – | 64 µg/mL (≈ 188 µM) | 2500 nM | 16 µg/mL (≈ 47 µM) | 3 |
| O=C1NCC(Cc2ccccc2)C(O)=C1C(=O)Nc1ccc(-n2ccnc2)cc1 (centres undefined) | 64 µg/mL (≈ 165 µM) | – | 4 µg/mL (≈ 10.3 µM) | 8800 nM | 32 µg/mL (≈ 82.4 µM) | – |
| O=C(Nc1ccc(C2CCCCC2)cc1)C1=C(O)CC(c2ccccc2)NC1=O (centres undefined) | 4 µg/mL (≈ 10.2 µM) | > 50000 nM | 8 µg/mL (≈ 20.5 µM) | 200 nM | 4 µg/mL (≈ 10.2 µM) | 6.5 |
| O=C(Nc1ccc(-c2ccccc2)cc1)C1=C(O)C(Cc2ccccc2)OC1=O (centres undefined) | > 128 µg/mL | – | 32 µg/mL (≈ 83 µM) | 1100 nM | 4 µg/mL (≈ 10.4 µM) | – |
| O=C(NC1CCCCC1)C1=C(O)CC(Cc2ccccc2)NC1=O (centres undefined) | 64 µg/mL (≈ 195 µM) | > 50000 nM | 64 µg/mL (≈ 195 µM) | 70 nM | 64 µg/mL (≈ 195 µM) | 6.5 |
| O=C(Nc1ccc(C2CCCCC2)cc1)C1=C(O)C[C@H](c2ccccc2)NC1=O | 4 µg/mL (≈ 10.2 µM) | > 50000 nM | 64 µg/mL (≈ 164 µM) | 180 nM | 4 µg/mL (≈ 10.2 µM) | 6.5 |

| Structure (SMILES) | MIC (Staphylococcus aureus) | IC50 [1] | MIC (Enterococcus faecalis) | IC50 (Isoprenyl transferase) | MIC (Streptococcus pneumoniae) | pKa [2] |
| --- | --- | --- | --- | --- | --- | --- |
| O=C(Nc1ccc(C2CCCCC2)cc1)C1=C(O)C[C@@H](c2ccccc2)NC1=O | 4 µg/mL (≈ 10.2 µM) | > 100000 nM | 64 µg/mL (≈ 164 µM) | 70 nM | 4 µg/mL (≈ 10.2 µM) | 6.5 |
| O=C(Nc1ccc(C2CCCCC2)cc1)C1=C(O)C(CCc2ccccc2)NC1=O (centres undefined) | 4 µg/mL (≈ 9.89 µM) | > 100000 nM | 4 µg/mL (≈ 9.89 µM) | 160 nM | 1 µg/mL (≈ 2.47 µM) | 3 |
| CC(C)CC1NC(=O)C(C(=O)Nc2ccc(C3CCCCC3)cc2)=C1O (centres undefined) | 0.5 µg/mL (≈ 1.4 µM) | > 50000 nM | 2 µg/mL (≈ 5.61 µM) | 1300 nM | 1 µg/mL (≈ 2.81 µM) | 3 |
| O=C1NCC(O)=C1C(=O)Nc1ccc(C2CCCCC2)cc1 | – | – | – | 58000 nM | – | 3 |
| O=C(Nc1ccc(C2CCCCC2)cc1)C1=C(O)C(c2ccccc2)NC1=O (centres undefined) | 2 µg/mL (≈ 5.31 µM) | > 100000 nM | 4 µg/mL (≈ 10.6 µM) | 3500 nM | 2 µg/mL (≈ 5.31 µM) | 3 |
| O=C(Nc1ccc(C2CCCCC2)cc1)C1=C(O)CC(Cc2ccccc2)NC1=O (centres undefined) | 32 µg/mL (≈ 79.1 µM) | > 50000 nM | 64 µg/mL (≈ 158 µM) | 40 nM | 8 µg/mL (≈ 19.8 µM) | 6.5 |
| O=C(Nc1ccc(-n2ccnc2)cc1)C1=C(O)CC(Cc2ccccc2)NC1=O (centres undefined) | 32 µg/mL (≈ 82.4 µM) | – | 32 µg/mL (≈ 82.4 µM) | 630 nM | 32 µg/mL (≈ 82.4 µM) | 6.5 |
| CCCCCCOc1ccc(NC(=O)C2=C(O)C(Cc3ccccc3)NC2=O)cc1 (centres undefined) | – | – | – | 19000 nM | – | 3 |
| O=C(Nc1ccc(C(F)(F)F)nc1)C1=C(O)CC(Cc2ccccc2)NC1=O (centres undefined) | 16 µg/mL (≈ 40.9 µM) | > 50000 nM | 16 µg/mL (≈ 40.9 µM) | 140 nM | 8 µg/mL (≈ 20.4 µM) | 6.5 |
| O=C(Nc1ccc(N2CCCCC2)cc1)C1=C(O)CC(Cc2ccccc2)NC1=O (centres undefined) | 64 µg/mL (≈ 158 µM) | > 50000 nM | 64 µg/mL (≈ 158 µM) | 110 nM | 64 µg/mL (≈ 158 µM) | 6.5 |
| O=C(NC1CCCCC1)C1=C(O)C(CCc2ccccc2)NC1=O (centres undefined) | 32 µg/mL (≈ 97.4 µM) | – | 32 µg/mL (≈ 97.4 µM) | 35000 nM | 64 µg/mL (≈ 195 µM) | 3 |
| O=C(Nc1ccc(C2CCCCC2)cc1)C1=C(O)C(Cc2ccccc2)NC1=O (centres undefined) | 0.5 µg/mL (≈ 1.28 µM) | > 100000 nM | 8 µg/mL (≈ 20.5 µM) | 1800 nM | 1 µg/mL (≈ 2.56 µM) | 3 |
| CC(C)CC1CC(O)=C(C(=O)Nc2ccc(C3CCCCC3)cc2)C(=O)N1 (centres undefined) | > 64 µg/mL | – | 64 µg/mL (≈ 173 µM) | 200 nM | 4 µg/mL (≈ 10.8 µM) | 6.5 |
| O=C(Nc1ccc(C2CCCCC2)cc1)C1=C(O)CC(C2CCCCC2)NC1=O (centres undefined) | > 32 µg/mL | – | 32 µg/mL (≈ 80.7 µM) | 60 nM | > 32 µg/mL | 6.5 |
| O=C(Nc1cc(Cl)cc(Cl)c1)C1=C(O)C(c2ccccc2)OC1=O (centres undefined) | 32 µg/mL (≈ 87.9 µM) | > 50000 nM | 32 µg/mL (≈ 87.9 µM) | 2000 nM | 4 µg/mL (≈ 11 µM) | – |
| O=C(Nc1ccc(C2CCCCC2)cc1)C1=C(O)C(Cc2ncc[nH]2)NC1=O (centres undefined) | 16 µg/mL (≈ 42.1 µM) | – | 16 µg/mL (≈ 42.1 µM) | 4200 nM | 8 µg/mL (≈ 21 µM) | 3 |
